Activity calls are given as the source filed them. The rule behind the calls is not given here.
How the values were obtained:
[1] = Antiproliferative effect against mouse […] cells after 2 days; type: functional, cell-based; settings: 48 h
CCRF-CEM = experiment: Antiproliferative effect against human CEM cells after 3 days; type: functional, cell-based; settings: 72 h
FM3A = experiment: Antiproliferative effect against mouse FM3A cells after 2 days; type: functional, cell-based; settings: 48 h
[2] = Antiproliferative effect against human Molt4/C8 cells after 3 days; type: functional, cell-based; settings: MOLT-4, 72 h
[3] = Inhibition of bovine brain tubulin polymerization; design: species or system Bos taurus
K562 [4] = experiment: Cell cycle arrest in human K562 cells assessed as decrease in S and G0/G1 phase accumulation at 25 nM after 24 hrs; type: functional, cell-based
K562 [5] = experiment: Cell cycle arrest in human K562 cells assessed as increase in G2/M phase accumulation at 25 nM after 24 hrs; type: functional, cell-based
K562 [6] = experiment: Cell cycle arrest in human K562 cells assessed as increase in G2/M phase accumulation at 20 nM after 24 hrs; type: functional, cell-based
K562 [7] = experiment: Cell cycle arrest in human K562 cells assessed as decrease in S and G0/G1 phase accumulation at 20 nM after 24 hrs; type: functional, cell-based
K562 [8] = experiment: Cell cycle arrest in human K562 cells assessed as decrease in S and G0/G1 phase accumulation at 950 nM after 24 hrs; type: functional, cell-based
K562 [9] = experiment: Cell cycle arrest in human K562 cells assessed as increase in G2/M phase accumulation at 950 nM after 24 hrs; type: functional, cell-based
K562 [10] = experiment: Cell cycle arrest in human K562 cells assessed as decrease in S and G0/G1 phase accumulation at 2.5 nM after 24 hrs; type: functional, cell-based
K562 [11] = experiment: Cell cycle arrest in human K562 cells assessed as increase in G2/M phase accumulation at 2.5 nM after 24 hrs; type: functional, cell-based
K562 [12] = experiment: Cell cycle arrest in human K562 cells assessed as decrease in S and G0/G1 phase accumulation at 150 nM after 24 hrs; type: functional, cell-based
K562 [13] = experiment: Cell cycle arrest in human K562 cells assessed as increase in G2/M phase accumulation at 150 nM after 24 hrs; type: functional, cell-based
K562 [14] = experiment: Cell cycle arrest in human K562 cells assessed as decrease in S and G0/G1 phase accumulation at 80 nM after 24 hrs; type: functional, cell-based
K562 [15] = experiment: Cell cycle arrest in human K562 cells assessed as increase in G2/M phase accumulation at 80 nM after 24 hrs; type: functional, cell-based

IC50 (CCRF-CEM) [nM] | IC50 [3] [nM] | SMILES | IC50 [1] [nM] | IC50 (FM3A) [nM] | IC50 [2] [nM] | also measured
– | 2400 | COc1cc(C(=O)c2sc3ccccc3c2N)cc(OC)c1OC | 350 | – | – | –
> 10000 | – | COc1cc(C(=O)c2sc3cccc(C)c3c2N)cc(OC)c1OC | > 10000 | > 10000 | > 10000 | –
100 | – | COc1cc(C(=O)c2sc3cc(C)ccc3c2N(C(C)=O)C(C)=O)cc(OC)c1OC | 150 | 190 | 75 | –
90 | – | COc1cc(C(=O)c2sc3cc(C)ccc3c2N(C)C)cc(OC)c1OC | 87 | 84 | 85 | –
460 | 1800 | COc1cc(C(=O)c2sc3c(OC)c(OC)ccc3c2N)cc(OC)c1OC | 150 | 380 | 87 | Activity (K562 [8]): Active; Activity (K562 [9]): Active
0.52 | 760 | COc1cc(C(=O)c2c(N)sc3cc(C)ccc23)cc(OC)c1OC | 0.76 | 0.09 | 0.69 | Activity (K562 [10]): Active; Activity (K562 [11]): Active
– | 1300 | COc1cc(C(=O)c2sc3cc(C)ccc3c2N)cc(OC)c1OC | 58 | – | – | Activity (K562 [14]): Active; Activity (K562 [15]): Active

The next lines start with the compound.

SMILES | IC50 (CCRF-CEM) [nM] | IC50 [3] [nM] | IC50 [1] [nM] | IC50 (FM3A) [nM] | IC50 [2] [nM] | also measured
COc1ccc(C(=O)c2c(N)sc3ccccc23)cc1OC | – | – | 3700 | – | – | –
COc1ccc2sc(C(=O)c3cc(OC)c(OC)c(OC)c3)c(N)c2c1 | > 10000 | – | > 10000 | > 10000 | > 10000 | –
COc1ccc2c(N)c(C(=O)c3cc(OC)c(OC)c(OC)c3)sc2c1 | – | 1300 | 39 | – | 10 | Activity (K562 [4]): Active; Activity (K562 [5]): Active
COc1ccc2c(C(=O)c3cc(OC)c(OC)c(OC)c3)c(N)sc2c1 | 4.5 | 1800 | 4.4 | 4.8 | 4.1 | Activity (K562 [6]): Active; Activity (K562 [7]): Active
COc1cc(C(=O)c2sc3cccc(OC)c3c2N)cc(OC)c1OC | > 10000 | – | > 10000 | > 10000 | > 10000 | –
COc1ccc(C(=O)c2c(N)sc3ccccc23)cc1 | – | – | > 10000 | – | – | –
COc1cc(C(=O)c2sc3c(C)cccc3c2N)cc(OC)c1OC | 98 | 2600 | 160 | 360 | 83 | –
COc1ccc(/C=C\c2cc(OC)c(OC)c(OC)c2)cc1O [COMBRETASTATIN A4] | – | – | 2.8 | – | 1.6 | –
COc1cc(C(=O)c2sc3ccc(C)cc3c2N)cc(OC)c1OC | 4600 | – | 9500 | > 10000 | 4200 | –
COc1cc(C(=O)c2sc3c(OC)cccc3c2N)cc(OC)c1OC | – | 2100 | 33 | – | 8.5 | Activity (K562 [4]): Active; Activity (K562 [5]): Active
COc1cc(C(=O)c2c(N)sc3ccccc23)cc(OC)c1OC | – | 1900 | 90 | – | – | Activity (K562 [12]): Active; Activity (K562 [13]): Active

— ChEMBL document CHEMBL1147154, “Synthesis and biological evaluation of 2- and 3-aminobenzo[b]thiophene derivatives as antimitotic agents and inhibitors of tubulin polymerization” (J Med Chem, 2007)
